Source: US20150105252A1, “SUBSTITUTED PYRAZOLES AS HERBICIDES” (E I DU PONT DE NEMOURS AND COMPANY, priority 2013, published 2015)

Experiments:
[1] = system: sedge, umbrella; assay: Test B flood; type: in vivo, Cyperus difformis; details: 250 g ai/ha, visual rating on 0 to 100 scale (0 no effect, 100 complete control), 13 to 15 days
Summary of the method: (§1)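 Plants were grown to the 2-leaf stage, then pots were flooded to 3 cm above the soil and compounds were applied directly into the paddy water. Water depth was held for the whole test; after 13 to 15 days in a greenhouse, injury was visually rated against untreated controls (0 = no effect, 100 = complete control).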

[2] = system: pigweed; assay: Test A postemergence; type: in vivo, Amaranthus retroflexus
Summary of the method: (§2)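 Scoring was visual, on a scale where 100 means complete control and 0 means no effect, comparing treated with untreated plants around 10 days post-application. Compounds in surfactant-containing non-phytotoxic solvent were sprayed onto soil preemergence or onto one- to two-leaf seedlings (2–10 cm) postemergence.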

[3] = system: wheat; assay: Test A preemergence; type: in vivo, Triticum aestivum; details: preemergence; for Wheat plant response rating (0 to 100 scale): visual injury approx. 10 days after treatment
Summary of the method: as §2

[4] = system: wheat; assay: Test A postemergence; type: in vivo, Triticum aestivum
Summary of the method: as §2

[5] = system: corn; assay: Test A postemergence; type: in vivo, Zea mays
Summary of the method: as §2

[6] = system: rice; assay: Test B flood; type: in vivo, Oryza sativa; details: 250 g ai/ha, visual rating on 0 to 100 scale (0 no effect, 100 complete control), 13 to 15 days
Summary of the method: as §1

[7] = system: barnyardgrass; assay: Test A preemergence; type: in vivo, Echinochloa crus-galli; details: preemergence; for Barnyardgrass plant response rating (0 to 100 scale, 0 is no effect, 100 is complete control): visual injury approx. 10 days after treatment
Summary of the method: as §2

[8] = system: morningglory; assay: Test A preemergence; type: in vivo, Ipomoea spp.; details: preemergence; for Morningglory plant response rating (0 to 100 scale): visual injury approx. 10 days after treatment
Summary of the method: as §2

[9] = system: barnyardgrass; assay: Test A postemergence; type: in vivo, Echinochloa crus-galli
Summary of the method: as §2

[10] = system: barnyardgrass; assay: Test B flood; type: in vivo, Echinochloa crus-galli; details: 250 g ai/ha, visual rating on 0 to 100 scale (0 no effect, 100 complete control), 13 to 15 days
Summary of the method: as §1

[11] = system: crabgrass, large; assay: Test A preemergence; type: in vivo, Digitaria sanguinalis; details: preemergence; for Crabgrass, Large plant response rating (0 to 100 scale): visual injury approx. 10 days after treatment
Summary of the method: as §2

[12] = system: morningglory; assay: Test A postemergence; type: in vivo, Ipomoea spp.
Summary of the method: as §2

[13] = system: ducksalad; assay: Test B flood; type: in vivo, Heteranthera limosa; details: 250 g ai/ha, visual rating on 0 to 100 scale (0 no effect, 100 complete control), 13 to 15 days
Summary of the method: as §1

[14] = system: corn; assay: Test A preemergence; type: in vivo, Zea mays; details: preemergence; for Corn plant response rating (0 to 100 scale): visual injury approx. 10 days after treatment
Summary of the method: as §2

[15] = system: crabgrass, large; assay: Test A postemergence; type: in vivo, Digitaria sanguinalis
Summary of the method: as §2

[16] = system: velvetleaf; assay: Test A preemergence; type: in vivo, Abutilon theophrasti; details: preemergence; for Velvetleaf plant response rating (0 to 100 scale): visual injury approx. 10 days after treatment
Summary of the method: as §2

[17] = system: foxtail, giant; assay: Test A preemergence; type: in vivo, Setaria faberii; details: preemergence; for Foxtail, Giant plant response rating (0 to 100 scale): visual injury approx. 10 days after treatment
Summary of the method: as §2

[18] = system: foxtail, giant; assay: Test A postemergence; type: in vivo, Setaria faberii
Summary of the method: as §2

[19] = system: pigweed; assay: Test A preemergence; type: in vivo, Amaranthus retroflexus; details: preemergence; for Pigweed plant response rating (0 to 100 scale): visual injury approx. 10 days after treatment
Summary of the method: as §2

[20] = system: velvetleaf; assay: Test A postemergence; type: in vivo, Abutilon theophrasti
Summary of the method: as §2

[21] = Postemergence, 500 g ai/ha, visual rating after approx. 10 days, 0 to 100 scale (0 no effect, 100 complete control)
[22] = postemergence, 125 g ai/ha, about 10 days, visual rating on 0 to 100 scale (0 no effect, 100 complete control)
[23] = 125 g ai/ha, visual injury, 0 to 100 scale, approx. 10 days
[24] = 500 g ai/ha, visual injury after approx. 10 days, 0 to 100 scale (0 no effect, 100 complete control)
[25] = Postemergence, 125 g ai/ha, 0 to 100 scale, 0 no effect, 100 complete control
[26] = Postemergence, 500 g ai/ha, 0 to 100 scale (0 no effect, 100 complete control)

## CCc1cc(-c2ccc(Br)cc2)nn1Cc1ccnc(C(F)(F)F)c1 [Compound 112]
[1]
  Plant response rating, Sedge, Umbrella: 0
[2]; [21]
  Pigweed plant response rating: 90
[2]; [22]
  Pigweed plant response rating: 30
[3]; [23]
  Wheat plant response rating: 0
[3]; [24]
  Wheat plant response rating: 0
[4]; [21]
  Wheat plant response rating: 40
[4]; [22]
  Wheat plant response rating: 10
[5]; [21]
  Corn plant response rating: 30
[5]; [22]
  Corn plant response rating: 0
[6]
  Plant response rating, Rice: 20
[7]; [23]
  Barnyardgrass plant response rating: 0
[7]; [24]
  Barnyardgrass plant response rating: 10
[8]; [23]
  Morningglory plant response rating: 0
[8]; [24]
  Morningglory plant response rating: 0
[9]; [21]
  Barnyardgrass plant response rating: 20
[9]; [22]
  Barnyardgrass plant response rating: 0
[10]
  Plant response rating, Barnyardgrass: 20
[11]; [23]
  Crabgrass, Large plant response rating: 70
[11]; [24]
  Crabgrass, Large plant response rating: 90
[12]; [21]
  Morningglory plant response rating: 70
[12]; [22]
  Morningglory plant response rating: 40
[13]
  Plant response rating, Ducksalad: 0
[14]; [23]
  Corn plant response rating: 0
[14]; [24]
  Corn plant response rating: 0
[15]; [21]
  Crabgrass, Large plant response rating: 20
[15]; [22]
  Crabgrass, Large plant response rating: 10
[16]; [23]
  Velvetleaf plant response rating: 0
[16]; [24]
  Velvetleaf plant response rating: 10
[17]; [23]
  Foxtail, Giant plant response rating: 70
[17]; [24]
  Foxtail, Giant plant response rating: 80
[18]; [21]
  Foxtail, Giant plant response rating: 20
[18]; [22]
  Foxtail, Giant plant response rating: 10
[19]; [23]
  Pigweed plant response rating: 0
[19]; [24]
  Pigweed plant response rating: 50
[20]; [21]
  Velvetleaf plant response rating: 40
[20]; [22]
  Velvetleaf plant response rating: 20

## CCc1cc(C(=O)NC2CC2)nn1Oc1cccc(OC(F)(F)F)c1 [Compound 222]
[1]
  Plant response rating, Sedge, Umbrella: 65
[2]; [25]
  Pigweed plant response rating: 30
[2]; [26]
  Pigweed plant response rating: 100
[3]; 125 g ai/ha
  Wheat plant response rating (0 to 100 scale): 0
[4]; [25]
  Wheat plant response rating: 0
[4]; [26]
  Wheat plant response rating: 20
[5]; [25]
  Corn plant response rating: 0
[5]; [26]
  Corn plant response rating: 60
[6]
  Plant response rating, Rice: 15
[7]; 125 g ai/ha
  Barnyardgrass plant response rating (0 to 100 scale, 0 is no effect, 100 is complete control): 0
[7]; [24]
  Barnyardgrass plant response rating: 90
[8]; 125 g ai/ha
  Morningglory plant response rating (0 to 100 scale): 0
[9]; [25]
  Barnyardgrass plant response rating: 80
[9]; [26]
  Barnyardgrass plant response rating: 80
[10]
  Plant response rating, Barnyardgrass: 0
[11]; 125 g ai/ha
  Crabgrass, Large plant response rating (0 to 100 scale): 80
[11]; [24]
  Crabgrass, Large plant response rating: 100
[12]; [25]
  Morningglory plant response rating: 30
[12]; [26]
  Morningglory plant response rating: 50
[13]
  Plant response rating, Ducksalad: 55
[14]; 125 g ai/ha
  Corn plant response rating (0 to 100 scale): 0
[14]; [24]
  Corn plant response rating: 0
[15]; [25]
  Crabgrass, Large plant response rating: 40
[15]; [26]
  Crabgrass, Large plant response rating: 90
[16]; 125 g ai/ha
  Velvetleaf plant response rating (0 to 100 scale): 0
[17]; 125 g ai/ha
  Foxtail, Giant plant response rating (0 to 100 scale): 0
[17]; [24]
  Foxtail, Giant plant response rating: 80
[18]; [25]
  Foxtail, Giant plant response rating: 20
[18]; [26]
  Foxtail, Giant plant response rating: 70
[19]; 125 g ai/ha
  Pigweed plant response rating (0 to 100 scale): 20
[20]; [25]
  Velvetleaf plant response rating: 30
[20]; [26]
  Velvetleaf plant response rating: 50

## CCCNC(=O)c1cc(C)n(Cc2ccnc(C(F)(F)F)c2)n1 [Compound 191]
[1]
  Plant response rating, Sedge, Umbrella: 55
[2]; [25]
  Pigweed plant response rating: 100
[2]; [26]
  Pigweed plant response rating: 100
[3]; 125 g ai/ha
  Wheat plant response rating (0 to 100 scale): 0
[3]; [24]
  Wheat plant response rating: 70
[4]; [25]
  Wheat plant response rating: 80
[4]; [26]
  Wheat plant response rating: 60
[5]; [26]
  Corn plant response rating: 100
[5]; [22]
  Corn plant response rating: 60
[6]
  Plant response rating, Rice: 0
[7]; 125 g ai/ha
  Barnyardgrass plant response rating (0 to 100 scale, 0 is no effect, 100 is complete control): 20
[7]; [24]
  Barnyardgrass plant response rating: 100
[8]; 125 g ai/ha
  Morningglory plant response rating (0 to 100 scale): 90
[8]; [24]
  Morningglory plant response rating: 100
[9]; [26]
  Barnyardgrass plant response rating: 100
[9]; [22]
  Barnyardgrass plant response rating: 70
[10]
  Plant response rating, Barnyardgrass: 0
[11]; 125 g ai/ha
  Crabgrass, Large plant response rating (0 to 100 scale): 100
[11]; [24]
  Crabgrass, Large plant response rating: 100
[12]; [25]
  Morningglory plant response rating: 90
[12]; [26]
  Morningglory plant response rating: 90
[13]
  Plant response rating, Ducksalad: 80
[14]; 125 g ai/ha
  Corn plant response rating (0 to 100 scale): 10
[14]; [24]
  Corn plant response rating: 60
[15]; [26]
  Crabgrass, Large plant response rating: 90
[15]; [22]
  Crabgrass, Large plant response rating: 80
[16]; 125 g ai/ha
  Velvetleaf plant response rating (0 to 100 scale): 10
[16]; [24]
  Velvetleaf plant response rating: 100
[17]; 125 g ai/ha
  Foxtail, Giant plant response rating (0 to 100 scale): 100
[17]; [24]
  Foxtail, Giant plant response rating: 100
[18]; [26]
  Foxtail, Giant plant response rating: 90
[18]; [22]
  Foxtail, Giant plant response rating: 80
[19]; 125 g ai/ha
  Pigweed plant response rating (0 to 100 scale): 100
[19]; [24]
  Pigweed plant response rating: 100
[20]; [25]
  Velvetleaf plant response rating: 90
[20]; [26]
  Velvetleaf plant response rating: 100
